Results taken from PMC5218480 (PLoS ONE, 2017).

Tested on: MV-4-11 cells
Assay: Gene expression microarray analysis (Affymetrix PrimeView) and GSEA
Type: cell-based, human
Design: RFU PODN (11730768_x_at) / Fold change /veh PODN (11730768_x_at) / RFU LINC00158 (11744669_a_at) / Fold change /veh LINC00158 (11744669_a_at) / RFU DUSP10 (11751237_a_at) / Fold change /veh DUSP10 (11751237_a_at) / RFU ID3 (11757404_x_at) / Fold change /veh ID3 (11757404_x_at) / RFU PLEKHG5 (11737974_s_at) / Fold change /veh PLEKHG5 (11737974_s_at) / RFU LRRC4B (11730491_at) / Fold change /veh LRRC4B (11730491_at) / RFU GIMAP4 (11747438_a_at) / Fold change /veh GIMAP4 (11747438_a_at) / RFU KRT8 (11758183_x_at) / Fold change /veh KRT8 (11758183_x_at) / RFU CNN1 (11734310_a_at) / Fold change /veh CNN1 (11734310_a_at) / RFU VPS37D (11726825_at) / Fold change /veh VPS37D (11726825_at) / RFU C10orf10 (11716522_x_at) / Fold change /veh C10orf10 (11716522_x_at) / RFU KIR2DL2 /// KIR2DL4 /// KIR2DL5A /// KIR2DL5B /// KIR2DS1 /// KIR2DS2 /// KIR2DS3 /// KIR2DS4 /// KIR3DL3 /// KIR3DL3 /// KIR3DS1 (11738374_at) / Fold change /veh KIR2DL2 /// KIR2DL4 /// KIR2DL5A /// KIR2DL5B /// KIR2DS1 /// KIR2DS2 /// KIR2DS3 /// KIR2DS4 /// KIR3DL3 /// KIR3DL3 /// KIR3DS1 (11738374_at) / RFU C1QL1 (11718748_at) / Fold change /veh C1QL1 (11718748_at) / RFU TMPRSS4 (11747572_a_at) / Fold change /veh TMPRSS4 (11747572_a_at) / RFU HAMP (11756126_x_at) / Fold change /veh HAMP (11756126_x_at) / RFU RNFT2 (11725882_a_at) / Fold change /veh RNFT2 (11725882_a_at) / RFU NR4A2 (11747474_a_at) / Fold change /veh NR4A2 (11747474_a_at) / RFU ABCC12 (11746883_a_at) / Fold change /veh ABCC12 (11746883_a_at) / RFU TMEM136 (11760407_x_at) / Fold change /veh TMEM136 (11760407_x_at) / RFU CLDN22 /// WWC2 (11732394_at) / Fold change /veh CLDN22 /// WWC2 (11732394_at) / RFU HLA-DPB1 (11760878_x_at) / Fold change /veh HLA-DPB1 (11760878_x_at) / RFU SPINT1 (11716480_a_at) / Fold change /veh SPINT1 (11716480_a_at) / RFU GAP43 (11754022_s_at) / Fold change /veh GAP43 (11754022_s_at) / RFU A4GNT (11735810_at) / Fold change /veh A4GNT (11735810_at) / RFU PRB3 (11715151_x_at) / Fold change /veh PRB3 (11715151_x_at) / RFU TUBB4B (11761932_at) / Fold change /veh TUBB4B (11761932_at) / RFU CAPN14 (11732068_a_at) / Fold change /veh CAPN14 (11732068_a_at) / RFU TMCC2 (11721928_a_at) / Fold change /veh TMCC2 (11721928_a_at) / RFU IRGQ (11745062_a_at) / Fold change /veh IRGQ (11745062_a_at) / RFU FAM174B (11720279_a_at) / Fold change /veh FAM174B (11720279_a_at) / RFU TMPRSS4 (11748680_a_at) / Fold change /veh TMPRSS4 (11748680_a_at) / RFU FAM212B (11763350_a_at) / Fold change /veh FAM212B (11763350_a_at) / RFU PLEKHG5 (11743358_a_at) / Fold change /veh PLEKHG5 (11743358_a_at) / RFU ZSCAN30 (11745921_a_at) / Fold change /veh ZSCAN30 (11745921_a_at) / RFU CMKLR1 (11741424_a_at) / Fold change /veh CMKLR1 (11741424_a_at) / RFU LOC101060620 /// MAPK8IP1 (11723275_at) / Fold change /veh LOC101060620 /// MAPK8IP1 (11723275_at) / RFU SPTSSB (11747773_x_at) / Fold change /veh SPTSSB (11747773_x_at) / RFU PRSS12 (11739890_at) / Fold change /veh PRSS12 (11739890_at) / RFU BIN1 (11741810_x_at) / Fold change /veh BIN1 (11741810_x_at) / RFU WNT11 (11732464_a_at) / Fold change /veh WNT11 (11732464_a_at) / RFU C10orf10 (11716521_a_at) / Fold change /veh C10orf10 (11716521_a_at) / RFU C5orf56 (11738089_at) / Fold change /veh C5orf56 (11738089_at) / RFU CYB561 (11721691_x_at) / Fold change /veh CYB561 (11721691_x_at) / RFU ANKRD19P (11752326_a_at) / Fold change /veh ANKRD19P (11752326_a_at) / RFU OR2T12 /// OR2T33 /// OR2T8 (11738714_s_at) / Fold change /veh OR2T12 /// OR2T33 /// OR2T8 (11738714_s_at) / RFU VCAN (11748164_a_at) / Fold change /veh VCAN (11748164_a_at) / RFU JSRP1 (11732532_at) / Fold change /veh JSRP1 (11732532_at) / RFU KRTAP10-11 (11738290_x_at) / Fold change /veh KRTAP10-11 (11738290_x_at) / RFU MYO3A (11730013_a_at) / Fold change /veh MYO3A (11730013_a_at) / RFU EBF3 (11725865_a_at) / Fold change /veh EBF3 (11725865_a_at) / RFU CAMK2N1 (11719241_x_at) / Fold change /veh CAMK2N1 (11719241_x_at) / RFU C5orf56 (11738088_a_at) / Fold change /veh C5orf56 (11738088_a_at) / RFU OLFML3 (11715873_a_at) / Fold change /veh OLFML3 (11715873_a_at) / RFU LOC100653217 /// NTM (11731650_a_at) / Fold change /veh LOC100653217 /// NTM (11731650_a_at) / RFU MAPK11 (11762145_a_at) / Fold change /veh MAPK11 (11762145_a_at) / RFU FIZ1 (11724087_x_at) / Fold change /veh FIZ1 (11724087_x_at) / RFU OASL (11726364_x_at) / Fold change /veh OASL (11726364_x_at) / RFU SOX15 (11748057_x_at) / Fold change /veh SOX15 (11748057_x_at) / RFU CD79A (11719716_a_at) / Fold change /veh CD79A (11719716_a_at) / RFU HIST1H1D (11736915_at) / Fold change /veh HIST1H1D (11736915_at) / RFU CASKIN2 (11723855_a_at) / Fold change /veh CASKIN2 (11723855_a_at) / RFU LOC730098 (11760151_x_at) / Fold change /veh LOC730098 (11760151_x_at) / RFU OR4N2 (11742367_at) / Fold change /veh OR4N2 (11742367_at) / RFU PRRT2 (11749266_a_at) / Fold change /veh PRRT2 (11749266_a_at) / RFU SNX32 (11753110_a_at) / Fold change /veh SNX32 (11753110_a_at) / RFU CDHR5 (11726645_a_at) / Fold change /veh CDHR5 (11726645_a_at) / RFU RCAN1 (11760418_a_at) / Fold change /veh RCAN1 (11760418_a_at) / RFU FAM167A (11723789_a_at) / Fold change /veh FAM167A (11723789_a_at) / RFU FAM26E (11764081_at) / Fold change /veh FAM26E (11764081_at) / RFU ISYNA1 (11749810_s_at) / Fold change /veh ISYNA1 (11749810_s_at) / RFU ACY1 (11761880_at) / Fold change /veh ACY1 (11761880_at) / RFU 11764098_at / Fold change /veh 11764098_at / RFU SAMD14 (11745864_x_at) / Fold change /veh SAMD14 (11745864_x_at) / RFU NPB (11741838_a_at) / Fold change /veh NPB (11741838_a_at) / RFU TMPRSS6 (11731388_a_at) / Fold change /veh TMPRSS6 (11731388_a_at) / RFU KRTAP10-2 (11738614_at) / Fold change /veh KRTAP10-2 (11738614_at) / RFU ARHGAP8 /// PRR5-ARHGAP8 (11727945_x_at) / Fold change /veh ARHGAP8 /// PRR5-ARHGAP8 (11727945_x_at) / RFU KRTAP5-7 /// NADSYN1 (11734609_at) / Fold change /veh KRTAP5-7 /// NADSYN1 (11734609_at) / RFU RASL12 (11751679_a_at) / Fold change /veh RASL12 (11751679_a_at) / RFU CDKN2B (11736163_a_at) / Fold change /veh CDKN2B (11736163_a_at) / RFU PRF1 (11729649_at) / Fold change /veh PRF1 (11729649_at) / RFU, ZNF638 /// ZNF638-IT1 / Fold change vs veh, ZNF638 /// ZNF638-IT1 / RFU, PANK3 / Fold change vs veh, PANK3 / RFU, SH3YL1 / Fold change vs veh, SH3YL1 / RFU, ZEB2 / Fold change vs veh, ZEB2 / RFU, NRIP1 / Fold change vs veh, NRIP1 / RFU, PTTG1IP / Fold change vs veh, PTTG1IP / RFU, CAPN2 / Fold change vs veh, CAPN2 / RFU, MED14 / Fold change vs veh, MED14 / RFU, SNORA58 / Fold change vs veh, SNORA58 / RFU, C1orf63 / Fold change vs veh, C1orf63 / RFU, LRRFIP1 / Fold change vs veh, LRRFIP1 / RFU, NDUFAF7 / Fold change vs veh, NDUFAF7 / RFU, SLC12A2 / Fold change vs veh, SLC12A2 / RFU, IBTK / Fold change vs veh, IBTK / RFU, ESF1 / Fold change vs veh, ESF1 / Fold change vs veh, TMEM50B / RFU, TAOK1 / Fold change vs veh, TAOK1 / RFU, ACBD3 / Fold change vs veh, ACBD3 / RFU, TMA16 / Fold change vs veh, TMA16 / RFU, RWDD3 / Fold change vs veh, RWDD3 / RFU, BCAT1 / Fold change vs veh, BCAT1 / RFU, EDEM3 / Fold change vs veh, EDEM3 / RFU, TMEM33 / Fold change vs veh, TMEM33 / RFU, WDR75 / Fold change vs veh, WDR75 / RFU, AHCTF1 / Fold change vs veh, AHCTF1 / RFU, TFRC / Fold change vs veh, TFRC / RFU, ZDHHC17 / Fold change vs veh, ZDHHC17 / RFU, NOM1 / Fold change vs veh, NOM1 / RFU, ARL8B / Fold change vs veh, ARL8B / RFU, ZBTB11 / Fold change vs veh, ZBTB11 / RFU, TAMM41 / Fold change vs veh, TAMM41 / RFU, KIAA1704 /// LOC100996395 / Fold change vs veh, KIAA1704 /// LOC100996395 / RFU, ING1 / Fold change vs veh, ING1 / RFU, TRMT61B / Fold change vs veh, TRMT61B / RFU, FUBP3 / Fold change vs veh, FUBP3 / RFU, TP53 / Fold change vs veh, TP53 / RFU, TNKS2 / Fold change vs veh, TNKS2 / RFU, ZFP14 / Fold change vs veh, ZFP14 / RFU, ACTR2 / Fold change vs veh, ACTR2 / RFU, PPP3R1 / Fold change vs veh, PPP3R1 / RFU, PIK3R1 / Fold change vs veh, PIK3R1 / RFU, HNRNPA1 / Fold change vs veh, HNRNPA1 / RFU, RNF170 / Fold change vs veh, RNF170 / RFU, ZNF28 / Fold change vs veh, ZNF28 / RFU, RNGTT / Fold change vs veh, RNGTT / RFU, OGT / Fold change vs veh, OGT / RFU, BRD1 / Fold change vs veh, BRD1 / RFU, MARS / Fold change vs veh, MARS / RFU, ZNF655 / Fold change vs veh, ZNF655 / RFU, FAHD1 / Fold change vs veh, FAHD1 / RFU, BDP1 / Fold change vs veh, BDP1 / RFU, LRRCC1 / Fold change vs veh, LRRCC1 / RFU, ARID1A / Fold change vs veh, ARID1A / RFU, ZNF146 / Fold change vs veh, ZNF146 / RFU, ZNF330 / Fold change vs veh, ZNF330 / RFU, GPN3 / Fold change vs veh, GPN3 / RFU, C9orf123 / Fold change vs veh, C9orf123 / RFU, N4BP2L2 / Fold change vs veh, N4BP2L2 / RFU, ARFIP1 / Fold change vs veh, ARFIP1 / RFU, FAM179B / Fold change vs veh, FAM179B / RFU, BCL10 / Fold change vs veh, BCL10 / RFU, UHRF1BP1L / Fold change vs veh, UHRF1BP1L / RFU, BET1 / Fold change vs veh, BET1 / RFU, CNOT2 / Fold change vs veh, CNOT2 / RFU, ZNF268 / Fold change vs veh, ZNF268 / Fold change vs veh, ZNF507 / RFU, DGCR2 / Fold change vs veh, DGCR2 / RFU, WDSUB1 / Fold change vs veh, WDSUB1 / Fold change vs veh, HSP90B1 /// MIR3652 / RFU, ADSS / Fold change vs veh, ADSS / RFU, GK / Fold change vs veh, GK / RFU, ZNF148 / Fold change vs veh, ZNF148 / RFU, TAF9 / Fold change vs veh, TAF9 / RFU, SLC1A5 / Fold change vs veh, SLC1A5 / RFU, SLMO2 / Fold change vs veh, SLMO2 / RFU, ABCC4 / Fold change vs veh, ABCC4 / RFU, LOC101060439 /// RAP1B / Fold change vs veh, LOC101060439 /// RAP1B / RFU, RFX7 / Fold change vs veh, RFX7 / RFU, GTPBP10 / Fold change vs veh, GTPBP10 / RFU, CNEP1R1 / Fold change vs veh, CNEP1R1 / RFU, BIVM-ERCC5 /// ERCC5 / Fold change vs veh, BIVM-ERCC5 /// ERCC5 / RFU, ILF3 / Fold change vs veh, ILF3 / RFU 11762660_at / Fold change /veh 11762660_at / RFU VCAN (11757783_s_at) / Fold change /veh VCAN (11757783_s_at) / RFU DDX43 (11728927_at) / Fold change /veh DDX43 (11728927_at) / RFU KRT8 (11758188_x_at) / Fold change /veh KRT8 (11758188_x_at) / RFU NKD1 (11759106_at) / Fold change /veh NKD1 (11759106_at) / RFU SRD5A1 (11742802_a_at) / Fold change /veh SRD5A1 (11742802_a_at) / RFU TPSAB1 /// TPSB2 (11721975_s_at) / Fold change /veh TPSAB1 /// TPSB2 (11721975_s_at) / RFU GSTM3 (11746129_a_at) / Fold change /veh GSTM3 (11746129_a_at) / RFU IL23R (11737362_x_at) / Fold change /veh IL23R (11737362_x_at) / RFU TMEM51 (11727254_a_at) / Fold change /veh TMEM51 (11727254_a_at) / RFU PIWIL2 (11732686_x_at) / Fold change /veh PIWIL2 (11732686_x_at) / RFU ORM1 (11744905_x_at) / Fold change /veh ORM1 (11744905_x_at) / RFU CCDC152 (11743942_at) / Fold change /veh CCDC152 (11743942_at) / RFU ECM1 (11717891_a_at) / Fold change /veh ECM1 (11717891_a_at) / RFU IL23R (11748794_a_at) / Fold change /veh IL23R (11748794_a_at) / RFU TNFAIP8L3 (11732012_x_at) / Fold change /veh TNFAIP8L3 (11732012_x_at) / RFU MBOAT4 (11741988_at) / Fold change /veh MBOAT4 (11741988_at) / RFU 11764193_at / Fold change /veh 11764193_at / RFU TMEM53 (11763286_at) / Fold change /veh TMEM53 (11763286_at) / RFU MAGEB2 (11727129_at) / Fold change /veh MAGEB2 (11727129_at) / RFU TMEM200A (11744735_a_at) / Fold change /veh TMEM200A (11744735_a_at) / RFU CCDC152 (11751479_a_at) / Fold change /veh CCDC152 (11751479_a_at) / RFU FAM211A (11726209_a_at) / Fold change /veh FAM211A (11726209_a_at) / RFU RGS16 (11746705_a_at) / Fold change /veh RGS16 (11746705_a_at) / RFU VCAN (11755009_s_at) / Fold change /veh VCAN (11755009_s_at) / RFU RHOB (11743442_s_at) / Fold change /veh RHOB (11743442_s_at) / RFU RGS16 (11720943_a_at) / Fold change /veh RGS16 (11720943_a_at) / RFU RGS16 (11720944_at) / Fold change /veh RGS16 (11720944_at) / RFU, VPS4B / Fold change vs veh, VPS4B / RFU, CREB1 / Fold change vs veh, CREB1 / RFU, DNAJC13 / Fold change vs veh, DNAJC13 / RFU, GNAQ / Fold change vs veh, GNAQ / RFU, CDK5R1 / Fold change vs veh, CDK5R1 / RFU, ZRANB3 / Fold change vs veh, ZRANB3 / RFU, CUL4A / Fold change vs veh, CUL4A / RFU, CCNY / Fold change vs veh, CCNY / RFU, UFL1 / Fold change vs veh, UFL1 / RFU, COG3 / Fold change vs veh, COG3 / RFU, DIAPH2 / Fold change vs veh, DIAPH2 / RFU, SKA2 / Fold change vs veh, SKA2 / RFU, AFF3 / Fold change vs veh, AFF3 / RFU, LMF1 / Fold change vs veh, LMF1 / RFU, IPO11 / Fold change vs veh, IPO11 / RFU, DFFB / Fold change vs veh, DFFB / RFU, FOXP1 / Fold change vs veh, FOXP1 / RFU, CARD8 / Fold change vs veh, CARD8 / RFU, STRN3 / Fold change vs veh, STRN3 / RFU, ADK / Fold change vs veh, ADK / RFU, RASSF2 / Fold change vs veh, RASSF2 / RFU, WIPF1 / Fold change vs veh, WIPF1 / RFU, LARP1B / Fold change vs veh, LARP1B / RFU, RASA1 / Fold change vs veh, RASA1 / RFU, RB1 / Fold change vs veh, RB1 / RFU, PPFIA1 / Fold change vs veh, PPFIA1 / RFU, MAT2A / Fold change vs veh, MAT2A / RFU, CCT5 / Fold change vs veh, CCT5 / RFU, WDR92 / Fold change vs veh, WDR92 / RFU, CUX1 / Fold change vs veh, CUX1 / RFU, TTC7A / Fold change vs veh, TTC7A / RFU, TMEM135 / Fold change vs veh, TMEM135 / RFU, DEPTOR / Fold change vs veh, DEPTOR / RFU, CPM / Fold change vs veh, CPM / RFU, DNAJB6 / Fold change vs veh, DNAJB6 / RFU, CACNA2D3 / Fold change vs veh, CACNA2D3 / RFU, DTX4 / Fold change vs veh, DTX4 / RFU, TFCP2 / Fold change vs veh, TFCP2 / RFU, GMCL1 /// GMCL1P1 / Fold change vs veh, GMCL1 /// GMCL1P1 / RFU, AEBP2 / Fold change vs veh, AEBP2 / RFU, SNHG1 /// SNORD22 /// SNORD25 /// SNORD26 /// SNORD27 /// SNORD28 /// SNORD29 /// SNORD31 / Fold change vs veh, SNHG1 /// SNORD22 /// SNORD25 /// SNORD26 /// SNORD27 /// SNORD28 /// SNORD29 /// SNORD31 / Fold change (Aza/veh), C12orf56 (ProbeSet 11735607_a_at) / Fold change (ACY-1035/veh), C12orf56 (ProbeSet 11735607_a_at) / Fold change (Aza/veh), FGFR1OP (ProbeSet 11751329_s_at) / Fold change (ACY-1035/veh), FGFR1OP (ProbeSet 11751329_s_at) / Fold change (Aza/veh), VPS36 (ProbeSet 11739960_a_at) / Fold change (ACY-1035/veh), VPS36 (ProbeSet 11739960_a_at) / RFU SYPL1 (11715823_x_at) / Fold change /veh SYPL1 (11715823_x_at) / RFU IGFBP7 (11715501_s_at) / Fold change /veh IGFBP7 (11715501_s_at) / RFU REEP3 (11722064_at) / Fold change /veh REEP3 (11722064_at) / RFU IGLL1 (11728026_x_at) / Fold change /veh IGLL1 (11728026_x_at): dose or concentration left out as unconfirmed
Details: ProbeSet 11739106_a_at; LIST B

Nc1ccc(-c2cccs2)cc1NC(=O)c1ccc2c(c1)cc(C1CC1)n2CCN1CCOCC1 [ACY-1035]
RFU, TMEM33: 263.53 RFU
